What was measured:
[1] = test system: Ramos; assay: Cytotoxicity assay (resazurin), Ramos; format: cell-based; conditions: Homo sapiens, 72 h, three independent experiments, range 0.1 to 25 µM
Procedure: (§1) Cytotoxicity assays for the purines were quantified using the resazurin method, a dye to measure redox reactions occurring in the mitochondria of live cells. The cells were treated by tested compounds (in triplicate, six different doses) for 72 h.

[2] = test system: FLT3-ITD signalling in MV4-11 cells; assay: Immunoblotting of FLT3-ITD-dependent pathway in MV4-11; format: cell-based; conditions: 4 h
Procedure: (§2) Protein changes in the treated cells were analysed using immunoblotting. Briefly, cell lysates were separated on SDS-polyacrylamide gels and electroblotted onto nitrocellulose membranes. After blocking, overnight incubation with specific primary antibodies and incubation with peroxidase-conjugated secondary antibodies, the peroxidase activity was detected with Super-Signal West Pico reagents (Thermo Scientific, Waltham, MA, USA) using a CCD camera LAS-4000 (Fujifilm). The following specific antibodies were purchased from Cell Signalling: anti-FLT3 (clone 8F2), anti-phospho-FLT3 Y589/591 (clone 30D4), anti-STAT5 (clone D2O6Y), anti-phospho-STAT5 Y694, anti-ERK1/2, anti-phospho-ERK1/2 T202/Y204, anti-Akt (clone C67E7), anti-phospho-Akt S473 (clone D9E), anti-phospho-Bcr Y177, anti-CrkL (clone 32H4), anti-phospho-CrkL Y207, anti-BTK (clone C82B8), anti-phospho-BTK Y223, anti-PLCγ2, anti-phospho-PLCγ2 Y1217, and anti-PARP-1 (clone 46D11). Anti-α-tubulin (clone DM1A) was purchased from Sigma Aldrich.
Based on their inhibitory effects on recombinant kinases as well as cytotoxic effects in relevant cell line models, the purine derivatives 4i, 5b and 5j were selected for further experiments to confirm the expected molecular mechanism of action. The candidate compounds were tested to determine changes in signalling pathways downstream of the oncogenic kinases in cells. […]

[3] = test system: MV4-11; assay: Cytotoxicity assay (resazurin), MV4-11; format: cell-based; conditions: Homo sapiens, 72 h, three independent experiments, range 0.1 to 25 µM
Procedure: as §1

[4] = biological target: Bcr-Abl1 (Homo sapiens, UniProt P00519); assay: Recombinant kinase radioassay, Abl; format: biochemical; conditions: ATP 1 µM, at least three independent experiments, range 0.01–100 µM
[5] = biological target: T1, BTK (Homo sapiens, UniProt Q06187); assay: Recombinant kinase radioassay, BTK; format: biochemical; conditions: recombinant kinase, radioassay, ATP 15 µM; at least three independent experiments, range 0.01–100 µM; read-out: IC50 BTK
T1 construct: purchased ProQinase
Summary of the method: (§3)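 Radiometric kinase assay: 0.05 µCi [γ-33P]ATP in HEPES pH 7.5 buffer with Mg2+/Mn2+, vanadate, DTT. Commercial BTK with 100 µM poly(Glu:Tyr 4:1), 15 µM ATP. In-house Cdk-2/cyclin E with 1 mg/mL histone H1, 15 µM ATP. H3PO4 stop, phosphocellulose capture, phosphorimager read.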

[6] = test system: caspase 3/7 activity in MV4-11 cells; assay: Caspase-3/7 assay, MV4-11; format: cell-based; conditions: 24 h
Procedure: MV4-11 and K562 cells were kept in a 96-well plate were treated with increasing concentrations of compound 4i and 5b for 24 h. After this period, caspase-3/7 assay buffer (150 mM HEPES pH 7.4, 450 mM NaCl, 150 mM KCl, 30 mM MgCl2, 1.2 mM EGTA, 1.5% Nonidet P40, 0.3% CHAPS, 30% sucrose, 30 mM DTT, and 3 mM PMSF) containing 150 µM peptide substrate Ac-DEVD-AMC (Enzo Life Sciences, Farmingdale, NY, USA) was added, and after 2 h incubation, the fluorescence of AMC was measured using a Fluoroskan Ascent microplate reader (Labsystems) at 346 nm/442 nm (excitation/emission).

[7] = test system: HL-60; assay: Cytotoxicity assay (resazurin), HL-60; format: cell-based; conditions: Homo sapiens, 72 h, three independent experiments, range 0.1 to 25 µM
Procedure: as §1

[8] = biological target: T2, FLT3-ITD (Homo sapiens, UniProt P36888, ITD); assay: Recombinant kinase radioassay, FLT3-ITD; format: biochemical; conditions: recombinant kinase, radioassay; at least three independent experiments, range 0.01–100 µM; read-out: IC50 FLT3-ITD
T2 sequence (P36888 27-993): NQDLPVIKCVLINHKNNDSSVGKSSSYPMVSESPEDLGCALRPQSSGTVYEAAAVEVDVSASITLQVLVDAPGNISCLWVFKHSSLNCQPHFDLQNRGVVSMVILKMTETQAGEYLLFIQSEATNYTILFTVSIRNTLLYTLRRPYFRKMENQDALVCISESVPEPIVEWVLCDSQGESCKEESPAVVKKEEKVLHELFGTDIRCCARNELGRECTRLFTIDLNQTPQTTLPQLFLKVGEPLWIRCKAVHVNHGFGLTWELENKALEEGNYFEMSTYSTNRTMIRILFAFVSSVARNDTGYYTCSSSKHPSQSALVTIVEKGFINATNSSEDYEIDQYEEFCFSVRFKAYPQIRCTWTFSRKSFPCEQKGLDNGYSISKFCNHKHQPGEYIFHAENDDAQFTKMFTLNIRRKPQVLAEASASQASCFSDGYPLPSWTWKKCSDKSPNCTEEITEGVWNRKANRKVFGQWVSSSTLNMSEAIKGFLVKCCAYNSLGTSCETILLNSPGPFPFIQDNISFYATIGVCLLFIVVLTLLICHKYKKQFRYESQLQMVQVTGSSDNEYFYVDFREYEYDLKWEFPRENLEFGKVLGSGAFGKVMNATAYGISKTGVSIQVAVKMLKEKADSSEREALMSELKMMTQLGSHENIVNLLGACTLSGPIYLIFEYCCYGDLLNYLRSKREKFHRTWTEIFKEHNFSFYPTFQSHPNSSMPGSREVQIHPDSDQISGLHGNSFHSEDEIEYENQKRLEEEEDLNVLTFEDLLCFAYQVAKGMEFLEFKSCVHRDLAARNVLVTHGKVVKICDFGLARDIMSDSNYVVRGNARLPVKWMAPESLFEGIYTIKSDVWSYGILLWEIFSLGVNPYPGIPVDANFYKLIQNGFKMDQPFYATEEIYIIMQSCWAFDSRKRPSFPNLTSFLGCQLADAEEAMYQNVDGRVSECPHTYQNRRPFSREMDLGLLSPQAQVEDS
Summary of the method: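 FLT3-ITD kinase, purchased from ProQinase, was tested in a standard radioassay with 100 µM poly (Glu:Tyr; 4:1) substrate, 0.05 µCi [γ-^33P]ATP and test compound in buffer of 60 mM HEPES-NaOH pH 7.5, 3 mM MgCl2, 3 mM MnCl2, 3 µM Na orthovanadate, 1.2 mM DTT and 2.5 µg/50 µL PEG20.000. Phosphorylated substrate was separated on P-81 phosphocellulose and quantified with a FLA-7000 image analyser.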

[9] = biological target: T3, Cdk-2/cyclin E (Homo sapiens, UniProt P24941); assay: Recombinant kinase radioassay, Cdk-2/cyclin E; format: biochemical; conditions: ATP 15 µM, at least three independent experiments, range 0.01–100 µM
T3 construct: made in house
Summary of the method: as §3

[10] = test system: K562; assay: Cytotoxicity assay (resazurin), K562; format: cell-based; conditions: Homo sapiens, 72 h, three independent experiments, range 0.1 to 25 µM
Procedure: as §1

[11] = test system: CEM; assay: Cytotoxicity assay (resazurin), CEM; format: cell-based; conditions: Homo sapiens, CCRF-CEM, 72 h, three independent experiments, range 0.1 to 25 µM
Procedure: as §1

[12] = test system: MV4-11 cells; assay: Flow cytometry cell cycle, MV4-11; format: cell-based; conditions: 24 h, sub-micromolar concentrations
Procedure: Cell cycle effects were measured using flow cytometric determination of DNA content. MV4-11 and K562 cells were treated with tested compounds for 24 h. After the staining with propidium iodide, the DNA content was analysed by flow cytometry using a 488 nm laser (BD FACS Verse with software BD FACSuite^TM, version 1.0.6.). The cell cycle distribution was analysed using ModFit LT (Verity Software House 5.0, Topsham, ME, USA).

[13] = test system: PARP-1 cleavage in MV4-11; assay: Immunoblotting of PARP-1 cleavage, MV4-11; format: cell-based; conditions: MV4-11 cells, 4 h
Procedure: as §2, with “Anti-α-tubulin (clone DM1A) was purchased from Sigma Aldrich.” left out
Finally, we analysed the mechanism of cell death induced by the prepared compounds 4i and 5b. Proteolytic cleavage of PARP-1—a well-established protein involved in apoptosis—was analysed in K562 and MV4-11 treated with respective compounds for 4 h. […] The PARP-1 fragment was not detected in MV4-11 cells treated with 5b because the compound was not effective in inducing apoptosis after 4 h of treatment (Figure 14B).

Sequence of Bcr-Abl1 (P00519 27-1130): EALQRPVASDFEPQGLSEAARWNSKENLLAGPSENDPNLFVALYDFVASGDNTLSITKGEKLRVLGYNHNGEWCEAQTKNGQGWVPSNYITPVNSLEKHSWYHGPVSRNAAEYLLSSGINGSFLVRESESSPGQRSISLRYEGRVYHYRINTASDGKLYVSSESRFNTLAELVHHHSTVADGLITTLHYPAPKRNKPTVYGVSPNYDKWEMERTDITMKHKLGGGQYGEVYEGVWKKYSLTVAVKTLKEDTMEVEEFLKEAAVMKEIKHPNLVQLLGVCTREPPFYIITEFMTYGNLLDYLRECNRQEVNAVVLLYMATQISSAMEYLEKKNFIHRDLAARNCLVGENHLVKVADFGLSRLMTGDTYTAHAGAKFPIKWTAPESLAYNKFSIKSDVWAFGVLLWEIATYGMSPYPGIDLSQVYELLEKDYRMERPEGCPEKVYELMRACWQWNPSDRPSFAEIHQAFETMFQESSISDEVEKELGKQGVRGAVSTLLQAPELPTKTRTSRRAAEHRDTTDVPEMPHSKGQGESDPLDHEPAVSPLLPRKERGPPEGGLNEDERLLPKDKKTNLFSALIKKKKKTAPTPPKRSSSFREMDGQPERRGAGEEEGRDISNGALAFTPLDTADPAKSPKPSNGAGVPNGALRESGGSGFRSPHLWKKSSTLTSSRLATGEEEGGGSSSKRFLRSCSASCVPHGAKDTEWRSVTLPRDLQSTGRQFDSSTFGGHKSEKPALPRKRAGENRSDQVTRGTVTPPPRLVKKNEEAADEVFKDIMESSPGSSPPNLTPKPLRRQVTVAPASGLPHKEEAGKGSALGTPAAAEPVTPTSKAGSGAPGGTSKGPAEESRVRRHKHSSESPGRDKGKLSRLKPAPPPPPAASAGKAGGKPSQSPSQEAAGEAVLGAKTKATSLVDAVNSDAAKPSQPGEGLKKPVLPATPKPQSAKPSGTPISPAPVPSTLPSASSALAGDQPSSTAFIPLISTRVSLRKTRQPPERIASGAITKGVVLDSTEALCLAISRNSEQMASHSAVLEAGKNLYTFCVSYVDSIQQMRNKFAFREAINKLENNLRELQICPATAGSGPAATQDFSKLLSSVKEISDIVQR
T1 sequence (Q06187 whole entry): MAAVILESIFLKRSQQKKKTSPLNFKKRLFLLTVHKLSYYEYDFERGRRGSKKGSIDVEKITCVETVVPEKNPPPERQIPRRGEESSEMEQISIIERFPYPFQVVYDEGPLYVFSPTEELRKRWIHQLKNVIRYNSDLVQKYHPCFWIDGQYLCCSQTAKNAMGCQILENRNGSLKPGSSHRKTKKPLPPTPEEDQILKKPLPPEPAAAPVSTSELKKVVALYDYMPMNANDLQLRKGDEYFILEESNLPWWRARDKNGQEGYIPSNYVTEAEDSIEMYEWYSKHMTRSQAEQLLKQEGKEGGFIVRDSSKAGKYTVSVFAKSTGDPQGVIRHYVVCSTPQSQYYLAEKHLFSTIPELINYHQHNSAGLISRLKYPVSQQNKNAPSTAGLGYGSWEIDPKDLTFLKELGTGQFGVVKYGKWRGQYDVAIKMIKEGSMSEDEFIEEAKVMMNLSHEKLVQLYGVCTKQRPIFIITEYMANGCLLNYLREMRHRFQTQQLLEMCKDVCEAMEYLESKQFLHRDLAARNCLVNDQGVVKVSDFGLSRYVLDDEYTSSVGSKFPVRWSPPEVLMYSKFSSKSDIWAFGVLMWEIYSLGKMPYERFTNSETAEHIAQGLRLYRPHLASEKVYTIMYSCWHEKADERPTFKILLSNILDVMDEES

IC50 [4]: > 50 µM
IC50 [5]: 3.78 ± 0.86 µM
IC50 [8]: 0.38 µM
IC50 [9]: 21.1 ± 1.91 µM
Structure (SMILES): CC(C)CCn1cnc2c(Nc3cccc(F)c3)nc(Nc3ccc(N4CCN(C)CC4)cc3)nc21 [Compound 5b, N^6-(3-Fluorophenyl)-9-isopentyl-N^2-(4-(4-methylpiperazin-1-yl)phenyl)-9H-purine-2,6-diamine]
GI50 [1]: 18.7 ± 3.1 µM
Phosphorylation of STAT5 [2]: inhibited
Autophosphorylation of the oncogenic FLT3-ITD ([2]; increasing concentrations): clear suppression
GI50 [3]: 2.89 ± 0.95 µM
Caspase 3/7 induction [6]: a higher concentration of 5b was required for caspase induction
GI50 [7]: 2.04 ± 0.58 µM
GI50 [10]: 18.6 ± 3.73 µM
GI50 [11]: > 25 µM
Cell cycle effect [12]: effectively induced G1 arrest
PARP-1 fragment [13]: not detected

Reference: PMC9228270, “Design, Synthesis, In Silico Studies and Inhibitory Activity towards Bcr-Abl, BTK and FLT3-ITD of New 2,6,9-Trisubstituted Purine Derivatives as Potential Agents for the Treatment of Leukaemia” (Pharmaceutics, 2022)
